Starred links: 1 amine or outer side, 2 acyl side, 3 side chain; linkers in the order of their positions; H or OH if unused. Positions of bridges follow the written chain, without caps; N, C: chain ends. Non-standard residues stand in square brackets, D forms with d. Residues, ends and D or L forms follow the SMILES beside them. Primed or numbered codes have the meaning given here. dTyr(4-OMe)″ = O-methyl-D-tyrosine, COc1ccc(C[C@@H](N[*:1])C(=O)[*:2])cc1; hCit = NC(=O)NCCCC[C@H](N)C(=O)O; 4Pal = N[C@@H](Cc1ccncc1)C(=O)O; Nle = CCCC[C@H](N)C(=O)O; Aib = CC(C)(N)C(=O)O
B1: CTX-1615 (peptide)
peptide: Ac-R[Nle]CR[dTyr(4-OMe)″]R[dW]C-NH2
modifications: disulfide 3-8
SMILES: CCCC[C@H](NC(=O)[C@H](CCCNC(=N)N)NC(C)=O)C(=O)N[C@H]1CSSC[C@@H](C(N)=O)NC(=O)[C@@H](Cc2c[nH]c3ccccc23)NC(=O)[C@H](CCCNC(=N)N)NC(=O)[C@@H](Cc2ccc(OC)cc2)NC(=O)[C@H](CCCNC(=N)N)NC1=O
B2: CTX-1614 (peptide)
peptide: Ac-R[Nle]CR[dTyr(4-OMe)″]RWC-NH2
modifications: disulfide 3-8
SMILES: CCCC[C@H](NC(=O)[C@H](CCCNC(=N)N)NC(C)=O)C(=O)N[C@H]1CSSC[C@@H](C(N)=O)NC(=O)[C@H](Cc2c[nH]c3ccccc23)NC(=O)[C@H](CCCNC(=N)N)NC(=O)[C@@H](Cc2ccc(OC)cc2)NC(=O)[C@H](CCCNC(=N)N)NC1=O

Legend:
human MC3R [1] = biological target: T1, human MC3R (Homo sapiens, UniProt P41968); experiment: split-luciferase cAMP sensor assay, agonist mode (measurement window 1), hMC3R; format: cell-based; conditions: for Emax: % maximal activation, read-out: MC3R cAMP % max activation; for Emax / EC50: agonist mode; for MC4R selectivity vs MC3R: MC4R versus MC3R; for EC50: HEK-293 cells stably expressing hMC3R, read-out: MC3R cAMP EC50
T1 construct: expressed in transfected cells; host or cells: HEK-293 cells stably expressing the GScAMP22F split-luciferase cAMP sensor (parent reporter line from Promega); MC3R clone generated in-house, G418 selection
T1 sequence (P41968 whole entry): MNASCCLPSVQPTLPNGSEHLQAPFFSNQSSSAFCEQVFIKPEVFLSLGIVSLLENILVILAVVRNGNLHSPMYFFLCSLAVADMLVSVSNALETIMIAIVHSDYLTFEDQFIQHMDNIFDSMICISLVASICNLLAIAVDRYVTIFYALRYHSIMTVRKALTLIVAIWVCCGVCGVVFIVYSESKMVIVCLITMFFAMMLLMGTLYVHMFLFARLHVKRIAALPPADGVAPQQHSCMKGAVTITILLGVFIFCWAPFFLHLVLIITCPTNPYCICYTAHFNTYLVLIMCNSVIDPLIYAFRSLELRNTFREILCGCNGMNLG
How it was run: (§1)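 Live stable cell lines carrying receptor plus GloSensor cAMP22f split-luciferase, loaded with 4% D-luciferin in serum-free medium (~1% serum estimated during assay). Luminescence recorded during in-line peptide addition; direct agonist effect read in window 1, with 20 μM forskolin as normalization reference. EC50 from four-parameter sigmoid fit.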

human MC4R = biological target: T2, human MC4R (Homo sapiens, UniProt P32245); experiment: split-luciferase cAMP sensor assay, agonist mode (measurement window 1), hMC4R; format: cell-based; conditions: agonist mode; for Emax: % maximal activation, read-out: MC4R cAMP % max activation
T2 construct: host or cells: HEK-293 cells stably expressing the GScAMP22F split-luciferase cAMP sensor and hMC4R, G418 selection
T2 sequence (P32245 whole entry): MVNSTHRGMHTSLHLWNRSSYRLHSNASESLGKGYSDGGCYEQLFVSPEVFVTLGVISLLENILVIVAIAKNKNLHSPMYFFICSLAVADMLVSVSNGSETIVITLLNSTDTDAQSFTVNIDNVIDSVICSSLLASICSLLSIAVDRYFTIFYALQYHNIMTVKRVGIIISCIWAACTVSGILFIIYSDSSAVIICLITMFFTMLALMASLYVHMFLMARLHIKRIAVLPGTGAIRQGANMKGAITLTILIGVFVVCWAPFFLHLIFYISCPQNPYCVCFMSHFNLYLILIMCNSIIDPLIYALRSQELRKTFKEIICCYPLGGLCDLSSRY
How it was run: as §1

human MC1R = biological target: T3, human MC1R (Homo sapiens, UniProt Q01726); experiment: split-luciferase cAMP sensor assay, agonist mode, hMC1R; format: cell-based; conditions: MC4R versus MC1R
T3 construct: expressed in transfected cells; host or cells: HEK-293 cells stably expressing hMC1R and the GScAMP22F cAMP sensor
T3 sequence (Q01726 whole entry): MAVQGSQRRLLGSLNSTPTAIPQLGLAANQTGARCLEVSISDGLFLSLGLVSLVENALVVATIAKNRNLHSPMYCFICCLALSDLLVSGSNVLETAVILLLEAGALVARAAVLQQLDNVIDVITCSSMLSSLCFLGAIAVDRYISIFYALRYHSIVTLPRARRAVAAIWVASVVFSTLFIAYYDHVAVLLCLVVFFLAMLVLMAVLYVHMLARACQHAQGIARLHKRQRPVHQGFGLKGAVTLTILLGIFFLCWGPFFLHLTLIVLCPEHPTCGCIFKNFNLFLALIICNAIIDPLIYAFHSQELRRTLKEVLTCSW
Protocol: FIG. 4A-B. (A) Pharmacological properties of exemplary MC4R agonist peptides, including those with improved efficacy in the MC4R+/− mouse (CTX-1211, CTX-1227, and CTX-1228). Concentration-response agonist curves for peptides indicated at the human MC4R (red), human MC3R (blue), human MC5R (green), and human MC1R (black) were determined by a split-luciferase cAMP sensor dynamic assay in HEK-293 cells stably expressing the hMC1R, hMC3R, hMC4R, or hMC5R and the GScAMP22F cAMP sensor. Each data point represents the mean±SEM of two experiments with three replicates each per experiment. Data is normalized to the ECmax of α-MSH. (B) Same as above, for peptides representing reduced activity at the hMC1R. Inset tables indicate EC50 values for the ligand indicated for each receptor.
The assay for the determination of the cAMP response in live cells was described previously. (Yu et al., 2020, Science 368, 428-433; incorporated by reference in its entirety). Cells were seeded at a density of 20,000 cells per well using 384-well poly-D lysine-coated, clear bottom, and black-wall assay plates (Corning Inc. Corning, NJ). Cells were allowed to attach to the plates for 18 to 24 h after which growth media was removed and 20 μl of 4% D-luciferin (Promega) in CO2 independent, serum-free medium (Thermo Fisher Scientific) was added to each well. The luciferase substrate was allowed to permeate the cells for 120 min at 37° C. Intracellular cAMP levels were measured using an FDSS 7000EX Functional Drug Screening System (Hamamatsu Photonics, Hamamatsu, Japan) in the Center for Chemical Genomics at the Life Sciences Institute. This instrument allowed the in-line addition of test-peptides and receptor agonists while simultaneously acquiring the luminescence signal from live cells. Assay read steps were set as follows: baseline acquisition of 2 min, the addition of 10 μl of varying 3× concentrations of test-peptides or vehicle followed by 11 min measurement (measurement window 1), and 10 μl addition of 4× concentration of the endogenous melanocortin agonist α-MSH (Bachem, Bubendorf, Switzerland) followed by an additional 11 min response measurement (measurement window 2). The resulting final concentration of α-MSH was close to the respective receptor EC90 dose for each receptor. Intraplate concentration response curves for α-MSH and SHU-9119 (Phoenix Pharmaceuticals, Burlingame CA) were included as reference controls. A submaximal forskolin (20 μM) concentration was also included to serve as a normalization reference to account for cell number variations and differences in assay transducer efficiency between cell lines.
With this set up it was possible to evaluate the direct effect of the test-peptides on the MC3R and MC4R cell lines during measurement window 1, while the antagonist profile in the presence of EC90 α-MSH was determined on measurement window 2. For data analysis baseline luminescence (i.e. the maximum luminescence signal from the initial 0 to 2 min window) was subtracted from the maximum luminescence obtained during measurement window 1 (2 to 13 min) and measurement window 2 (13 to 24 min) to yield the test-peptide elicited responses. EC50 or IC50 potency values were determined by non-linear regression by fitting the data to a sigmoid four-parameter variable slope model using the GraphPad Prism version 8.4 software package (San Diego CA).

human MC4R receptor [2] = biological target: T4, human MC4R receptor (human, UniProt P32245 1-332); experiment: cell-based or functional assay
T4 sequence (P32245 whole entry): as the sequence (P32245 whole entry) above

human MC3R [3] = biological target: human MC3R (human, UniProt P41968 1-323); experiment: cell-based or functional assay
Sequence of human MC3R (human, UniProt P41968 1-323) (P41968 whole entry): as the sequence (P41968 whole entry) above

human MC4R receptor [4] = biological target: T4, human MC4R receptor; experiment: cell-based or functional assay; remark: listed apart in the source

Molecule	Emax (human MC3R [1])	MC4R selectivity vs MC3R (human MC3R [1])	Emax (human MC4R)	MC4R selectivity vs MC1R (human MC1R)	EC50 (human MC3R [1])	EC50 (human MC4R; HEK-293 cells stably expressing hMC4R, read-out: MC4R cAMP EC50)	MC4R selectivity vs MC1R (human MC4R receptor [2])	MC4R selectivity vs MC3R (human MC4R receptor [2])	% max activation (human MC3R [3])	cAMP EC50 (human MC3R [3])	% max activation (human MC4R receptor [4])	cAMP EC50 (human MC4R receptor [4])
C[C@H]1NC(=O)CSC[C@@H](C(N)=O)NC(=O)[C@H](Cc2ccccc2)NC(=O)[C@H](CCCNC(=N)N)NC(=O)[C@@H](Cc2ccccc2)NC(=O)[C@H](CCCNC(=N)N)NC1=O [CTX-1657, Thioether-cyclo(D-Ala-Arg-D-Phe-Arg-Phe-Cys)] ({CH2CO}-[dA]R[dF]RFC-NH2; thioether N-6)	30%	3.56	78%	1.42								
CC(=O)N[C@@H](CCCNC(=N)N)C(=O)N[C@H]1CSSC[C@@H](C(N)=O)NC(=O)[C@H](Cc2ccccc2)NC(=O)[C@H](CCCNC(=N)N)NC(=O)[C@@H](Cc2ccccc2)NC(=O)[C@H](CCCCNC(N)=O)NC(=O)C(C)(C)NC1=O [CTX-1603, Arg-cyclo(Cys-Aib-homo-Cit-D-Phe-Arg-Phe-Cys)] (Ac-RC[Aib][hCit][dF]RFC-NH2; disulfide 2-8 (inferred))		>18	91%	2.46	> 10000 nM							
CC(=O)N[C@@H](CCCNC(=N)N)C(=O)N[C@H]1CSSC[C@@H](C(N)=O)NC(=O)[C@H](Cc2ccccc2)NC(=O)[C@H](CCCNC(=N)N)NC(=O)[C@@H](Cc2ccccc2)NC(=O)[C@H](Cc2ccncc2)NC(=O)C(C)(C)NC1=O [CTX-1606, Arg-cyclo(Cys-Aib-Pal(4′)-D-Phe-Arg-Phe-Cys)] (Ac-RC[Aib][4Pal][dF]RFC-NH2; disulfide 2-8 (inferred))	7.69%	0.62	92%	2.99								
CC(=O)N[C@@H](CCCNC(=N)N)C(=O)N[C@H]1CSSC[C@@H](C(N)=O)NC(=O)[C@H](Cc2c[nH]c3ccccc23)NC(=O)[C@H](CCCNC(=N)N)NC(=O)[C@@H](Cc2ccccc2)NC(=O)[C@H](CCCNC(=N)N)NC(=O)[C@H](C)NC1=O [CTX-1267, Arg-cyclo(Cys-Ala-Arg-D-Phe-Arg-Trp-Cys)] (Ac-RCAR[dF]RWC-NH2; disulfide 2-8)	40%	4.07	96%	0.5	12 nM	3 nM						
B1							0.26	2.14	55%	27 nM	68%	13 nM
B2							0.08	1.89	28%	3.2 nM	41%	1.7 nM
